Test results reported in PubChem BioAssay (NCI).
Several values for one entry are separate records, joined by “and”; a condition that tells them apart may be missing. Identical values can stand only once.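 96-well plates; 48 h exposure; 5 concentrations. Endpoints by linear interpolation between flanking doses. Not reached: highest tested concentration assigned. Abbreviation: GI50, concentration required for 50% inhibition of growth. TGI: concentration producing complete growth inhibition.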 *1 amine or outer side, *2 acyl side, *3 side chain or, on linkers, in order; H or OH if unused. Where a SMILES comes first, the peptide text is derived from it. Bridges are numbered along the chain shown (N, C = ends). [ ]: non-standard residue; d: D form. The star is where a group is joined. Phe(3,5-F2) = N[C@@H](Cc1cc(F)cc(F)c1)C(=O)O; Pro(4R-Me) = C[C@H]1CN[C@H](C(=O)O)C1; aThr = C[C@H](O)[C@H](N)C(=O)O; Pip = O=C(O)[C@@H]1CCCCN1; X10 = Fc1cc(C2CC2)ccc1N*; CO = O=C([*:1])[*:2]

Tests used:
Assay in all cases: inhibition of tumour cell growth, NCI panel, 48 h
[1] = tested on: MDA-MB-468 breast
[2] = tested on: 786-0 renal
[3] = tested on: A549 NSCLC
[4] = tested on: ACHN renal
[5] = tested on: CAKI-1 renal
[6] = tested on: DU-145 prostate
[7] = tested on: EKVX NSCLC
[8] = tested on: HCC-2998 colon
[9] = tested on: HCT-15 colon
[10] = tested on: HL-60(TB) leukemia
[11] = tested on: HOP-62 NSCLC
[12] = tested on: HOP-92 NSCLC
[13] = tested on: HT29 colon
[14] = tested on: IGROV1 ovarian
[15] = tested on: K-562 leukemia
[16] = tested on: KM12 colon
[17] = tested on: M14 melanoma
[18] = tested on: MALME-3M melanoma
[19] = tested on: MCF7 breast
[20] = tested on: MDA-MB-231 breast
[21] = tested on: MDA-MB-435
[22] = tested on: MOLT-4 leukemia
[23] = tested on: NCI-H226 lung
[24] = tested on: NCI-H23 lung
[25] = tested on: NCI-H460 lung
[26] = tested on: NCI-H522 lung
[27] = tested on: OVCAR-3 ovarian
[28] = tested on: OVCAR-4 ovarian
[29] = tested on: OVCAR-5 ovarian
[30] = tested on: OVCAR-8 ovarian
[31] = tested on: PC-3 prostate
[32] = tested on: RPMI-8226 leukemia
[33] = tested on: SF-268 CNS
[34] = tested on: SF-295 CNS
[35] = tested on: SF-539 CNS
[36] = tested on: SK-MEL-5 melanoma
[37] = tested on: SN12C renal
[38] = tested on: SNB-19 CNS
[39] = tested on: SNB-75 CNS
[40] = tested on: SR leukemia
[41] = tested on: SW-620 colon
[42] = tested on: T-47D breast
[43] = tested on: U251 CNS
[44] = tested on: UACC-257 melanoma
[45] = tested on: UO-31 renal

For CC1CCc2nc[nH]c(=O)c21 (stereo not drawn), the GI50 [1] was over 100 µM and the TGI [1] was over 100 µM.
Work on O=C(Nc1ccc(F)cc1)Nc1ccc(Cl)c([N+](=O)[O-])c1 yielded a GI50 [1] of 2.15 µM and a TGI [1] of 7.54 µM.
With COC(=O)/C=C1\S/C(=N\NC(=O)c2cc3ccc2/C=C\c2ccc(cc2)/C=C\3)N(c2ccccc2)C1=O the GI50 [1] was 1.84 µM and the TGI [1] was 3.74 µM.
Work on CN1CCCCC1CCN1c2ccccc2Sc2ccc(Cl)cc21 (stereo not drawn) yielded a GI50 [1] of 1.94 µM and a TGI [1] of 4.44 µM.
COc1cnc2c(c1)C(=O)c1c-2n(CCCN2CCOCC2)c(=O)c2cc(F)ccc12 gave a GI50 [1] of 0.195 µM and a TGI [1] of 0.656 µM.
In the case of OC1CSSC1Cn1cnc2c(Nc3ccc(OCc4cccc(F)c4)c(Cl)c3)ncnc21 (stereo not drawn), the GI50 [1] is reported as 0.786 µM and the TGI [1] is reported as 2.12 µM.
In the case of C[C@@H]1C[C@H]2C(=O)O[C@@H](C)[C@H](NC(=O)[C@H](Cc3cc(F)cc(F)c3)NC(=O)Nc3ccc(C4CC4)cc3F)C(=O)N3CCC[C@H]3C(=O)N3CCCC[C@H]3C(=O)N[C@@H](C)C(=O)N2C1 ({X10-CO}-[Phe(3,5-F2)][aThr]P[Pip]A[Pro(4R-Me)]; ester 2-C), the GI50 [1] is reported as 0.0257 µM and the TGI [1] is reported as 0.187 µM.
For Fc1[nH]nc2ccc([C@@H]3Nc4ccc5[nH]ncc5c4[C@H]4C5CCC(C5)[C@@H]34)cc12 (stereo partly drawn), the GI50 [1] was 0.361 µM and the TGI [1] was 12 µM.
Molecule Cc1nc2sccn2c1-c1csc(Nc2ccccc2Cl)n1 has a GI50 [1] of 0.719 µM and a TGI [1] of 5.84 µM.
Work on CCN1/C(=C\c2cc[n+](CC)c3ccccc23)C=Cc2ccccc21 yielded a GI50 [1] of 0.109 µM and a TGI [1] of 0.519 µM.
Molecule CN(C)c1ccc(/C=C\C2=[N+](C)c3ccccc3C2(C)C)cc1 has a GI50 [1] of 0.287 µM and a TGI [1] of 5.08 µM.
Work on Cn1cc(C2=C(c3c4n(c5ccccc35)CCCCC4)C(=O)NC2=O)c2ccccc21 yielded a GI50 [1] of 1.17 µM and a TGI [1] of over 19.9 µM.
Work on Cc1cc(N=C2NC(=O)S/C2=C\c2ccc(F)cc2)n[nH]1 yielded a GI50 [2] of 3.01 µM, a TGI [2] of over 100 µM and a GI50 [3] of 3.07 µM. For the same molecule, the TGI [3] was over 100 µM, the GI50 [4] was 3.36 µM and the TGI [4] was over 100 µM. For the same molecule, the GI50 [5] was 3.81 µM, the TGI [5] was over 100 µM and the GI50 [6] was 5.33 µM. For the same molecule, the TGI [6] was over 100 µM, the GI50 [7] was 2.69 µM and the TGI [7] was over 100 µM. It also gave a GI50 [8] of 3.67 µM, a TGI [8] of over 100 µM and a GI50 [9] of 2.47 µM. The TGI [9] was over 100 µM, the GI50 [10] was 3.3 µM and the TGI [10] was over 100 µM. For the same molecule, the GI50 [11] was 2.59 µM, the TGI [11] was over 100 µM and the GI50 [12] was 2.62 µM. It also gave a TGI [12] of over 100 µM, a GI50 [13] of 4.09 µM and a TGI [13] of over 100 µM. For the same molecule, the GI50 [14] was 2.59 µM, the TGI [14] was over 100 µM and the GI50 [15] was 3.32 µM. It also gave a TGI [15] of over 100 µM, a GI50 [16] of 4.13 µM and a TGI [16] of over 100 µM. It also gave a GI50 [17] of 2.63 µM, a TGI [17] of over 100 µM and a GI50 [18] of 3.47 µM. The TGI [18] was over 100 µM, the GI50 [19] was 2.36 µM and the TGI [19] was over 100 µM. The GI50 [20] was 2.95 µM, the TGI [20] was over 100 µM and the GI50 [21] was 3 µM. For the same molecule, the TGI [21] was over 100 µM, the GI50 [22] was 2.93 µM and the TGI [22] was over 100 µM. For the same molecule, the GI50 [23] was 2.9 µM, the TGI [23] was over 100 µM and the GI50 [24] was 3.63 µM. It also gave a TGI [24] of over 100 µM, a GI50 [25] of 3.13 µM and a TGI [25] of over 100 µM. It also gave a GI50 [26] of 2.57 µM, a TGI [26] of over 100 µM and a GI50 [27] of 3.13 µM. It also gave a TGI [27] of over 100 µM, a GI50 [28] of 3.85 µM and a TGI [28] of over 100 µM. It also gave a GI50 [29] of 3.65 µM, a TGI [29] of over 100 µM and a GI50 [30] of 2.76 µM. It also gave a TGI [30] of over 100 µM, a GI50 [31] of 3.37 µM and a TGI [31] of over 100 µM. It also gave a GI50 [32] of 2.27 µM, a TGI [32] of 6.34 µM and a GI50 [33] of 4.48 µM. For the same molecule, the TGI [33] was over 100 µM, the GI50 [34] was 2.79 µM and the TGI [34] was over 100 µM. The GI50 [35] was 2.84 µM, the TGI [35] was over 100 µM and the GI50 [36] was 3.16 µM. For the same molecule, the TGI [36] was over 100 µM, the GI50 [37] was 3.81 µM and the TGI [37] was over 100 µM. The GI50 [38] was 3.2 µM, the TGI [38] was over 100 µM and the GI50 [39] was 2.12 µM. For the same molecule, the TGI [39] was over 100 µM, the GI50 [40] was 2.35 µM and the TGI [40] was over 100 µM. For the same molecule, the GI50 [41] was 3.92 µM, the TGI [41] was over 100 µM and the GI50 [42] was 2.58 µM. For the same molecule, the TGI [42] was over 100 µM, the GI50 [43] was 2.35 µM and the TGI [43] was over 100 µM. It also gave a GI50 [44] of 2.82 µM, a TGI [44] of over 100 µM and a GI50 [45] of 2.33 µM. It also gave a TGI [45] of over 100 µM.
For COc1ccc2c(c1)sc1nc(-c3ccccc3)c(-c3cccc4ccccc34)n12, the GI50 [1] was 1.47 µM and the TGI [1] was 5.05 µM.
OCc1cc2ccccc2c2c3c(ccc12)OCO3 was tested, and the GI50 [1] was 18.9 µM and the TGI [1] was 65.1 µM.
C[C@@H](Oc1cc(-n2cnc3ccc(CN4CCN(C)CC4)cc32)sc1C(N)=O)c1ccccc1C(F)(F)F was tested, and the GI50 [1] was < 0.01 µM and 0.004 µM and the TGI [1] was 1.4 µM and 2.87 µM.
In the case of COc1cccc(-c2cc(-c3cccc(NS(C)(=O)=O)c3)nc(N)c2C#N)c1O, the GI50 [1] is reported as 0.421 µM and the TGI [1] is reported as 4.23 µM.
Molecule Cc1ccnc2c1ccc1c(C)ccnc12 has a GI50 [1] of 0.36 µM and a TGI [1] of 2.72 µM.
Work on COC1/C=C/OC2(C)Oc3c(C)c(O)c4c(O)c(c(/C=N/Nc5ccc([N+](=O)[O-])cc5[N+](=O)[O-])c(O)c4c3C2=O)NC(=O)C(C)=C/C=C/C(C)C(O)C(C)C(O)C(C)C(OC(C)=O)C1C (stereo not drawn) yielded a GI50 [1] of 1.11 µM and a TGI [1] of 2.86 µM.
In the case of COc1cc2c(c(OC)c1OC)-c1ccc(NNC(N)=S)c(=O)cc1[C@@H](NC(C)=O)CC2, the GI50 [1] is reported as 0.233 µM.
Work on Nc1c(C(=O)c2cccc(CCS(N)(=O)=O)c2)cnn1-c1ccc(F)cc1 yielded a GI50 [1] of over 17.7 µM and a TGI [1] of over 25 µM.
Cc1cc(-c2nc(C(=O)Nc3cc4oc(N5CCOCC5)nc4nc3N3CC[C@@H](O)C3)co2)ccn1 was tested, and the GI50 [1] was 13.3 µM and the TGI [1] was 64.8 µM.
Work on C=CC(=O)Nc1cc(Nc2ncc(C(=O)OC(C)C)c(-c3cn(C)c4ccccc34)n2)c(OC)cc1N(C)CCN(C)C yielded a GI50 [1] of under 0.01 µM and a TGI [1] of 0.069 µM.
With Cc1ccc(NC(=O)Nc2ccc(-c3cccnc3)cc2N2CCC(CO)CC2)cc1 the GI50 [1] was 2.49 µM and the TGI [1] was 7.12 µM.
For O=C(Nc1ccc(-n2ccc3c(NC(=O)c4ccccc4)nccc32)cc1)c1ccc(Cl)c(C(F)(F)F)c1, the GI50 [1] was 0.919 µM and the TGI [1] was 5.65 µM.
For C=CCO[C@H]1CO[C@H]2[C@@H]1OC[C@@H]2Oc1ccc(Nc2ccnc(Nc3ccc(O[C@H]4CO[C@H]5[C@@H]4OC[C@@H]5OCC=C)c(Cl)c3)n2)cc1Cl, the GI50 [1] was 1.62 µM and the TGI [1] was 3.13 µM.
COc1cccc(C2c3cc4c(cc3OC(C)(N3CCCC3)C2C)OCO4)c1O (stereo not drawn) gave a GI50 [1] of 4.66 µM and a TGI [1] of over 100 µM.
With COc1cc(/C=N\NC(=O)CN2CCN(c3cc4c(cc3F)c(=O)c(C(=O)N/N=C/c3cc(OC)c(OC)c(OC)c3)cn4C3CC3)CC2)cc(OC)c1OC the GI50 [1] was 0.221 µM and the TGI [1] was 0.535 µM.
In the case of COc1ccc([C@H]2[C@H](O)C(=O)N2c2cc(OC)c(OC)c(OC)c2)cc1F, the GI50 [1] is reported as under 0.01 µM and the TGI [1] is reported as over 100 µM.
With Cc1ccc(CN2CCC(C(=O)Nc3ccc(-c4cc5ccccc5[nH]4)cc3)CC2)o1 the GI50 [1] was 83.4 µM and the TGI [1] was over 100 µM.
For O=C1NC(=NCCc2cccc(F)c2)S/C1=C\c1ccc2ncccc2c1, the GI50 [1] was 1.18 µM and the TGI [1] was over 20.4 µM.
Work on FC(F)(F)c1cccc(Nc2nc(-c3ccccc3)nc3ncccc23)c1 yielded a GI50 [1] of 2.42 µM and a TGI [1] of 7.71 µM.
Cc1ccc2c(C)c3c(ccc4ccccc43)c[n+]2c1 showed a GI50 [1] of 0.408 µM and a TGI [1] of 2.24 µM.
For NS(=O)(=O)OC[C@@H]1C[C@@H](n2ccc3c(NC4CCc5ccccc54)ncnc32)C[C@@H]1O (stereo partly drawn), the GI50 [1] was 1.31 µM and the TGI [1] was 50.2 µM.
